Experimental data published in the NIST ThermoML archive (doi:10.1021/je400056z).

Assay: xn = mol fraction of the nth substance listed
Conditions: Liquid, Vibrating tube method

CCCCCCC [heptane] + O=C=O
Conditions | mass density [kg/m3]
322.91 K, 22022 kPa, x2 = 0.7514 | 759.49
322.91 K, 23010 kPa, x2 = 0.7514 | 762.14
322.91 K, 23983 kPa, x2 = 0.7514 | 764.78
322.91 K, 24907 kPa, x2 = 0.7514 | 767.21
322.94 K, 3016 kPa, x2 = 0.0218 | 663.11
322.94 K, 4008 kPa, x2 = 0.0218 | 664.28
322.94 K, 5006 kPa, x2 = 0.0218 | 665.41
322.94 K, 5006 kPa, x2 = 0.5085 | 691.2
322.94 K, 6002 kPa, x2 = 0.0218 | 666.44
322.94 K, 6004 kPa, x2 = 0.5085 | 693.82
322.94 K, 7003 kPa, x2 = 0.0218 | 667.61
322.94 K, 7005 kPa, x2 = 0.5085 | 696.6
322.94 K, 8006 kPa, x2 = 0.0218 | 668.67
322.94 K, 8009 kPa, x2 = 0.5085 | 698.81
322.94 K, 8995 kPa, x2 = 0.0218 | 669.76
322.94 K, 9010 kPa, x2 = 0.5085 | 701.04
322.94 K, 10002 kPa, x2 = 0.0218 | 670.79
322.94 K, 10006 kPa, x2 = 0.5085 | 703.24
322.94 K, 10997 kPa, x2 = 0.5085 | 705.29
322.94 K, 11002 kPa, x2 = 0.0218 | 671.78
322.94 K, 11999 kPa, x2 = 0.0218 | 672.82
322.94 K, 12001 kPa, x2 = 0.5085 | 707.34
322.94 K, 12998 kPa, x2 = 0.5085 | 709.37
322.94 K, 13000 kPa, x2 = 0.0218 | 673.79
322.94 K, 14001 kPa, x2 = 0.0218 | 674.79
322.94 K, 14004 kPa, x2 = 0.5085 | 711.26
322.94 K, 15002 kPa, x2 = 0.0218 | 675.77
322.94 K, 15009 kPa, x2 = 0.5085 | 713.17
322.94 K, 15998 kPa, x2 = 0.0218 | 676.69
322.94 K, 16004 kPa, x2 = 0.5085 | 715.02
322.94 K, 17002 kPa, x2 = 0.0218 | 677.65
322.94 K, 17009 kPa, x2 = 0.5085 | 716.84
322.94 K, 18003 kPa, x2 = 0.0218 | 678.53
322.94 K, 18003 kPa, x2 = 0.5085 | 718.61
322.94 K, 18995 kPa, x2 = 0.0218 | 679.45
322.94 K, 19009 kPa, x2 = 0.5085 | 720.34
322.94 K, 20004 kPa, x2 = 0.5085 | 722.03
322.94 K, 20009 kPa, x2 = 0.0218 | 680.41
322.94 K, 20999 kPa, x2 = 0.0218 | 681.28
322.94 K, 21007 kPa, x2 = 0.5085 | 723.66
322.94 K, 21995 kPa, x2 = 0.5085 | 725.31
322.94 K, 22005 kPa, x2 = 0.0218 | 682.14
322.94 K, 23002 kPa, x2 = 0.5085 | 726.96
322.94 K, 23011 kPa, x2 = 0.0218 | 683.03
322.94 K, 24002 kPa, x2 = 0.5085 | 728.57
322.94 K, 24009 kPa, x2 = 0.0218 | 683.94
322.94 K, 24961 kPa, x2 = 0.0218 | 684.87
322.94 K, 25011 kPa, x2 = 0.5085 | 730.19
322.96 K, 12028 kPa, x2 = 0.9496 | 666.43
322.96 K, 13010 kPa, x2 = 0.9496 | 691.64
322.96 K, 13994 kPa, x2 = 0.9496 | 711.79
322.96 K, 14997 kPa, x2 = 0.9496 | 728.42
322.96 K, 16006 kPa, x2 = 0.9496 | 742.98
322.96 K, 17008 kPa, x2 = 0.9496 | 755.69
322.96 K, 17999 kPa, x2 = 0.9496 | 766.84
322.96 K, 19001 kPa, x2 = 0.9496 | 777.08
322.96 K, 20001 kPa, x2 = 0.9496 | 786.26
322.96 K, 20994 kPa, x2 = 0.9496 | 794.84
322.96 K, 21997 kPa, x2 = 0.9496 | 802.85
322.96 K, 23019 kPa, x2 = 0.9496 | 810.46
322.96 K, 23997 kPa, x2 = 0.9496 | 817.33
322.96 K, 24395 kPa, x2 = 0.9496 | 820.02
332.7 K, 12055 kPa, x2 = 0.9496 | 554.72
332.7 K, 13001 kPa, x2 = 0.9496 | 599.39
332.7 K, 14003 kPa, x2 = 0.9496 | 633.33
332.7 K, 14995 kPa, x2 = 0.9496 | 659.11
332.7 K, 16003 kPa, x2 = 0.9496 | 680.52
332.7 K, 16980 kPa, x2 = 0.9496 | 697.86
332.7 K, 18002 kPa, x2 = 0.9496 | 713.39
332.7 K, 19004 kPa, x2 = 0.9496 | 727.03
332.7 K, 19979 kPa, x2 = 0.9496 | 738.9
332.7 K, 20995 kPa, x2 = 0.9496 | 749.98
332.7 K, 22006 kPa, x2 = 0.9496 | 760
332.7 K, 23011 kPa, x2 = 0.9496 | 769.32
332.7 K, 24046 kPa, x2 = 0.9496 | 778.17
332.7 K, 24505 kPa, x2 = 0.9496 | 781.98
332.72 K, 5013 kPa, x2 = 0.3148 | 672.27
332.72 K, 6004 kPa, x2 = 0.3148 | 673.82
332.72 K, 7000 kPa, x2 = 0.3148 | 675.27
332.72 K, 8008 kPa, x2 = 0.3148 | 676.79
332.72 K, 9003 kPa, x2 = 0.3148 | 678.48
332.72 K, 10007 kPa, x2 = 0.3148 | 680.17
332.72 K, 11008 kPa, x2 = 0.3148 | 681.84
332.72 K, 11995 kPa, x2 = 0.3148 | 683.4
332.72 K, 12994 kPa, x2 = 0.3148 | 684.97
332.72 K, 14002 kPa, x2 = 0.3148 | 686.5
332.72 K, 15009 kPa, x2 = 0.3148 | 688.01
332.72 K, 16005 kPa, x2 = 0.3148 | 689.47
332.72 K, 16994 kPa, x2 = 0.3148 | 690.88
332.72 K, 17996 kPa, x2 = 0.3148 | 692.28
332.72 K, 19002 kPa, x2 = 0.3148 | 693.66
332.72 K, 20001 kPa, x2 = 0.3148 | 695.02
332.72 K, 21004 kPa, x2 = 0.3148 | 696.34
332.72 K, 22014 kPa, x2 = 0.3148 | 697.64
332.72 K, 22998 kPa, x2 = 0.3148 | 698.95
332.72 K, 24000 kPa, x2 = 0.3148 | 700.22
332.72 K, 25010 kPa, x2 = 0.3148 | 701.53
332.73 K, 9976 kPa, x2 = 0.7514 | 687.42
332.73 K, 11027 kPa, x2 = 0.7514 | 694.77
332.73 K, 12005 kPa, x2 = 0.7514 | 701.07
332.73 K, 13004 kPa, x2 = 0.7514 | 706.72
332.73 K, 14002 kPa, x2 = 0.7514 | 712.07
332.73 K, 15007 kPa, x2 = 0.7514 | 716.96
332.73 K, 16008 kPa, x2 = 0.7514 | 721.73
332.73 K, 17006 kPa, x2 = 0.7514 | 726.16
332.73 K, 17992 kPa, x2 = 0.7514 | 730.25
332.73 K, 19005 kPa, x2 = 0.7514 | 734.18
332.73 K, 19992 kPa, x2 = 0.7514 | 737.97
332.73 K, 21048 kPa, x2 = 0.7514 | 741.67
332.73 K, 21991 kPa, x2 = 0.7514 | 745.02
332.73 K, 22997 kPa, x2 = 0.7514 | 748.43
332.73 K, 23997 kPa, x2 = 0.7514 | 751.86
332.73 K, 24860 kPa, x2 = 0.7514 | 754.69
332.8 K, 3011 kPa, x2 = 0.0218 | 654.41
332.8 K, 4004 kPa, x2 = 0.0218 | 655.67
332.8 K, 5003 kPa, x2 = 0.0218 | 656.85
332.8 K, 6000 kPa, x2 = 0.0218 | 658.03
332.8 K, 7004 kPa, x2 = 0.0218 | 659.2
332.8 K, 8007 kPa, x2 = 0.0218 | 660.37
332.8 K, 9001 kPa, x2 = 0.0218 | 661.51
332.8 K, 10004 kPa, x2 = 0.0218 | 662.62
332.8 K, 10998 kPa, x2 = 0.0218 | 663.71
332.8 K, 12002 kPa, x2 = 0.0218 | 664.82
332.8 K, 12996 kPa, x2 = 0.0218 | 665.83
332.8 K, 13999 kPa, x2 = 0.0218 | 666.94
332.8 K, 15004 kPa, x2 = 0.0218 | 667.94
332.8 K, 16005 kPa, x2 = 0.0218 | 668.95
332.8 K, 16998 kPa, x2 = 0.0218 | 669.95
332.8 K, 18005 kPa, x2 = 0.0218 | 670.91
332.8 K, 19003 kPa, x2 = 0.0218 | 671.91
332.8 K, 20002 kPa, x2 = 0.0218 | 672.83
332.8 K, 21008 kPa, x2 = 0.0218 | 673.8
332.8 K, 21997 kPa, x2 = 0.0218 | 674.76
332.8 K, 22998 kPa, x2 = 0.0218 | 675.69
332.8 K, 24009 kPa, x2 = 0.0218 | 676.63
